Reference: patent US11473088B2, “Method of treating cancer and method of sensitizing cancer cells to the action of chemotherapeutic agents via growth hormone receptor antagonists or knock down” (Ohio University, priority 2016, dated 2022)

Columns and labels:
SK-MEL-5 cells = assay: Cell proliferation (resazurin) assay; type: cell-based, human; details: 48 hr
HepG2 cells = assay: RT-qPCR after GH / GHR-antagonist treatment; type: cell-based, human; details: 3 days
Procedure: Following treatments, cells were lysed, and RNA extraction was performed using IBI Tri-isolate kit (IBI), following manufacturer's protocol. RT-qPCR was performed as described previously.
And so, the inventors performed a similar experiment with HepG2 and SK-HEP-1 human liver cancer cells, which have been extensively studied and known to express GHR, to verify this observation in human melanoma cells. In vitro, HepG2 cells were treated for 3 days with either 50 ng/mL GH (2.5 nM), or 50 nM […], or both GH and GHR-antagonist, and their RNA expressions were compared against untreated controls at basal condition (i.e. no drug treatment).
The inventors had previously shown that knock-down of GHR in turn strongly attenuates MET as well as HGF transcript levels in human melanoma. To verify this observation in another GHR expressing human cancer like HCC, the inventors analyzed the effects of GH and GHR-antagonist treatment on the expression of the oncogenic HGF-MET loop in human liver cancer cells. HepG2 and SK-HEP-1 cells were treated for 3 days with either 50 ng/mL GH (2.5 nM), or 50 nM GHR-antagonist, or both, and their RNA expressions were compared against untreated controls at basal levels (i.e. no drug treatment). No additional effect of added GH on the expression levels of HGF or MET in the liver cancer cell lines was observed, except a 2-fold increase in MET levels in SK-HEP-1 cells (FIG. 39). […] Irrespective of presence of added GH, the antagonist lowered HGF levels by >4-fold in Hep-G2 cells and up to 2-fold in SK-HEP-1 cells; while the MET levels were decreased by >2-fold in both Hep-G2 and SK-HEP-1 cells compared to the GH treated samples (FIG. 39). This observed nature of the suppressive effect of GHR-antagonist strongly indicates the existence of a autocrine/paracrine GH action in HCC, as the inventors had found stable GH expression in both Hep-G2 and SK-HEP-1 cells.

Substance: hGH: Recombinant human growth hormone, Antibodies Online #ABIN2017921
- Cell proliferation induced by hGH-excess (increase) (SK-MEL-5 cells; 50 ng/ml hGH): 10%
- increase in proliferation (SK-MEL-5 cells; 150 ng/mL hGH): 22%
- RNA level of CDH1, the epithelial marker (HepG2 cells; 50 ng/mL GH): downregulating
- RNA levels of mesenchymal marker vimentin (HepG2 cells; 50 ng/mL GH): significantly upregulate
- levels of ABCC4 and of the transcription factor SPI-B (HepG2 cells; exogenous GH 50 ng/mL): markedly upregulated
